Measurements published in ChEMBL document CHEMBL1133991, “Bioisosteres of 9-carboxymethyl-4-oxo-imidazo[1,2-a]indeno-[1,2-e]pyrazin-2-carboxylic acid derivatives. Progress towards selective, potent in vivo AMPA antagonists with longer durations of action” (Bioorg Med Chem Lett, 2001).
The source made the active and inactive calls. No cut-off for these calls is given here.

Tests used:
[1] = organism: Mus musculus; test: (§1) Dose which protected 50 % of the mice from a tonic convulsion.; type: functional
[2] = molecular target: Glutamate NMDA receptor; test: In vitro binding affinity towards NMDA glutamate receptor using [3H]5,7-dichlorokynurenate as ligand on rat cortical membrane preparations
[3] = molecular target: T1, Glutamate receptor ionotropic, AMPA (Rattus norvegicus, UniProt P19490+P19491+P19492+P19493)
Description: Affinity towards Ionotropic glutamate receptor AMPA using [3H]AMPA as ligand on rat cortical membrane preparations

[4] = tested on: Mus musculus; test: Dose which protected 50 % of the mice from a tonic convulsion, pretreatment was before 3 hr by i.v. administration in MES test.; type: functional; conditions: iv
[5] = organism: Mus musculus; test: as §1; type: functional; remark: listed apart in the source
[6] = molecular target: T1, Glutamate receptor ionotropic, AMPA; remark: listed apart in the source
Description: Compound was evaluated for potent antagonist intrinsic activity against Ionotropic glutamate receptor AMPA

[7] = tested on: Mus musculus; test: Dose which protected 50 % of the mice from a tonic convulsion, pretreatment was before 3 hr by i.v. administration in MES test at 40 mg/kg (Inactive); type: functional, organism-based; set-up: dose 40 mg/kg

| Structure (SMILES) | IC50 [2] [nM] | IC50 [3] [nM] | ED50 [1] [mg/kg] | ED50 [4] [mg/kg] | ED50 [5] [mg/kg] | IC50 [6] [nM] | ED50 [7] |
| --- | --- | --- | --- | --- | --- | --- | --- |
| O=C(O)Cc1cccc2c1Cc1c-2nc(O)c2nc(-c3ccc(C(=O)O)cc3)cn12 | 5800 | 12 | 5 | 15 | 5 |  |  |
| O=c1[nH]c2cc(-n3ccnc3)c([N+](=O)[O-])cc2[nH]c1=O [YM-90K] |  |  |  | > 40 |  |  |  |
| O=P(O)(O)c1cn2c3c(nc(O)c2n1)-c1cccc(Cc2nn[nH]n2)c1C3 | 2360 | 13 | 0.8 | 3.5 | 1 | 6 |  |
| O=C(O)Cc1cn2c3c(nc(O)c2n1)-c1cccc(CC(=O)O)c1C3 |  |  | 0.5 | 28 |  |  |  |
| O=C(O)Cc1cccc2c1Cc1c-2nc(O)c2nc(C(=O)O)cn12 |  |  |  | 25.6 |  |  |  |
| O=C(O)Cc1cccc2c1Cc1c-2nc(O)c2nc(-c3cccc(C(=O)O)c3)cn12 | 7200 | 40 |  |  | 8.6 |  |  |
| O=C(Cc1cccc2c1Cc1c-2nc(O)c2nc(C(=O)O)cn12)NS(=O)(=O)c1ccccc1 | 2000 | 139 |  |  |  |  |  |
| O=C(O)[C@@H]1C[C@H]2C[C@@H](CCc3nn[nH]n3)CC[C@H]2CN1 [TEZAMPANEL ANHYDROUS] |  |  | 3.4 |  |  |  |  |

Second part, led by results:

| IC50 [2] [nM] | IC50 [3] [nM] | Structure (SMILES) | ED50 [1] [mg/kg] | ED50 [4] [mg/kg] | ED50 [5] [mg/kg] | IC50 [6] [nM] | ED50 [7] |
| --- | --- | --- | --- | --- | --- | --- | --- |
| > 10000 | 150 | O=C(O)Cc1cccc2c1Cc1c-2nc(O)c2nc(P(=O)(O)O)cn12 | 2.9 | 3.5 | 3.5 |  |  |
| 328 | 189 | CNC(=O)Cc1cccc2c1Cc1c-2nc(O)c2nc(C(=O)O)cn12 | 5 | > 20 | 10 |  |  |
| > 10000 | 586 | O=C(O)c1cn2c3c(nc(O)c2n1)-c1cccc(CP(=O)(O)O)c1C3 |  |  | 5.6 |  |  |
| 1200 | 235 | CS(=O)(=O)NC(=O)Cc1cccc2c1Cc1c-2nc(O)c2nc(C(=O)O)cn12 |  |  |  |  |  |
| 537 | 15 | O=C(O)c1cn2c3c(nc(O)c2n1)-c1cccc(Cc2nn[nH]n2)c1C3 | 2 |  | 2.3 |  | inactive |
| 1600 | 31 | O=C(O)CCc1cn2c3c(nc(O)c2n1)-c1cccc(CC(=O)O)c1C3 |  |  | 1.9 |  |  |
| 6100 | 100 | O=C(O)Cc1cccc2c1Cc1c-2nc(O)c2nc(-c3ccccc3C(=O)O)cn12 |  |  |  |  |  |
| > 10000 | 30 | O=C(O)/C=C/c1cn2c3c(nc(O)c2n1)-c1cccc(CC(=O)O)c1C3 | 3.8 | 25.6 | 2.2 |  |  |
| > 10000 | 147 | O=C(O)Cc1cccc2c1Cc1c-2nc(O)c2nc(CP(=O)(O)O)cn12 | 2.5 | 22.4 | 4.7 |  |  |
